Consider 88 compounds from a melting point compilation (Tetko et al.; mined from patent text by program, amines drawn as free bases though some values may be those of a salt).

For the compound `CCOC(=O)c1[nH]c2cc(Cl)cc(Cl)c2c1NCC(=O)c1ccccc1`, the melting point lay within 143 to 144 °C.
The result for `Cc1c(NCc2ccccc2)c2c(c3c1C(c1ccc(C(C)C)cc1)CO3)CCCC2` (stereo not drawn) reads 98 to 99 °C; that for `CC(=O)N1CC=C(C#Cc2ccc3c(c2)NC(=O)CC(c2cccc(C#N)c2)=N3)CC1`, 203 °C; that for `CCN(CC)C(=O)C1CCC2C3CNC4=CC(=O)C=CC4(C)C3CCC12C` (stereo not drawn), above 250 °C.
As to `COc1ccc2c(c1[N+](=O)[O-])CN(C(=O)C(F)(F)F)CC(=O)N2C`, the melting point lay in the range of 71 to 74 °C.
Next, `COc1ccc(C=Cc2nnc(C(F)(F)F)o2)cc1`: 117 to 118 °C; `CCCc1nc2c(N)nc3cc(OCc4cccnc4)ccc3c2s1`: 167 to 169 °C; `Cc1c(O)cc(O)c(C)c1C(=O)OCC(Cl)(Cl)Cl`: 132 to 133 °C.
The result for `O=C(CNS(=O)(=O)c1ccc2ccccc2c1)NCCNC(=O)C1CCN(c2ccncc2)CC1` reads 107 to 109 °C; that for `Cc1cc(OS(=O)(=O)C(F)(F)F)ccc1-c1cc(C(F)(F)F)nn1-c1ccc(S(C)(=O)=O)cc1`, 175 °C.
Consider `CC1(C)CC(=O)Nc2ccc(-c3cccc(C#N)c3)cc21`, for which the melting point is 190 to 192 °C.
In turn, `Cc1cc(=O)c(C(=O)Nc2cccc(C)c2C)c(C)o1` showed a melting point of 174 to 176 °C.
Next, `Cc1c(C)c2c(c(C3CC(=O)C=C(O)C3)c1C)OCC2` (stereo not drawn): 264 °C; `CCNC1=C(c2ccc(OC)cc2)C(=O)c2cc(OC)ccc21`: 88 to 90 °C; `S=C(NN=Cc1cccc(-c2ccc(Cl)cc2Cl)n1)NN1CCCC1`: 155 to 156 °C.
The result for `Cc1ccc(OC(=O)N2CCCC2=O)cc1` reads 101 to 102 °C; that for `CN1C(=O)SCC1C(=O)NCCO[N+](=O)[O-]` (stereo not drawn), 105 to 106 °C; that for `O=C(Cl)c1sc2cc(Oc3ccccc3)ccc2c1Cl`, 121 to 123 °C.
Next, `Cc1ccc(C(=O)[C@H]2C[C@H]2C(=O)O)cc1` (relative stereo): 165 to 166 °C.
With `CCCCCCCCCCC[C@H](C[C@H](O)[C@H](CCCCCC)C(=O)O)OCc1ccccc1`, the melting point was 57 to 60 °C.
The result for `CC(C)c1nsc(N=CN(C)C)c1C#N` reads 95 to 97 °C.
Next, `CCN1C(=Cc2ccc([N+](=O)[O-])cc2C#N)C=Cc2ccccc21`: 183 to 184 °C.
Next, `COc1c(-c2ccc3cc(NS(C)(=O)=O)ccc3c2)cc(-n2ccc(=O)[nH]c2=O)cc1-c1ccc(C)o1`: 174 to 178 °C; `O=C(Nc1noc2ccccc12)N1CCN(c2nc(-c3ccccn3)ns2)CC1`: 222 to 223 °C.
Take `CC1(CSC#N)SC2C(NC(=O)Cc3ccccc3)C(=O)N2C1C(=O)OCC(Cl)(Cl)Cl` (stereo not drawn): the melting point fell in the range of 133 to 135 °C.
In turn, `COc1ccc(-c2nc(NC3=NCCN3)sc2-c2ccc(OC)cc2)cc1` displayed a melting point of 211 to 214 °C.
Next, `COC(=O)C=Cc1ccc(OCc2nc(-c3ccco3)oc2C)c(OC)c1`: 129 to 130 °C; `COc1ccc(N)c(OC)c1COc1cccc2ccc(C)nc12`: 208 to 210 °C.
The result for `Nc1c(Cl)cc(C(O)CNCCCCCCOCCCCCCc2ncccn2)cc1Cl` (stereo not drawn) reads 55 to 57 °C; that for `CCN(CC)c1cc(C)nc(Oc2c(C)cc(Cl)cc2C)c1C`, 184 to 185 °C; that for `CC(Oc1ccc2oc3cc(Cl)ccc3c2c1)C(N)=O` (stereo not drawn), 185 to 187 °C.
Take `CNC(=O)c1cccc(C(O)c2ccc(F)cc2)c1` (stereo not drawn): the melting point is 138 to 139 °C.
The result for `CS(=O)(=O)Nc1ccc(NC(=O)C(=O)N2CCC(Cc3ccc(F)cc3)CC2)cc1` reads 178 to 182 °C.
`CC(C)(C)NC(=O)/C=C/c1ccc(C(=O)c2c(-c3ccc(O)cc3)sc3cc(O)ccc23)cc1` came in with a melting point of 187 to 190 °C.
`CC(C)(C)c1ccc(/C=N/OCCCOc2ccc(CCC(=O)O)cc2)cc1`: the melting point is 101 to 102 °C.
Next, `CN1C(C(=O)Nc2cc(Cl)ncn2)=C(O)c2ccc3ccccc3c2S1(=O)=O`: 263 °C; `COC(=O)CCC(=O)OCC(C)(C)Oc1ccc2c(c1)CCc1c-2ccc2c1CCC2(C)C`: 58 to 60 °C.
For `COc1ccc2nc3cc(OC)c(=O)cc-3sc2c1`, the melting point lay within 237 to 238 °C.
The result for `Nc1cccc(C(=O)O)c1NCc1ccccc1Cl` reads 203 to 204 °C; that for `Nc1ccc(-c2cc(=O)c(C(=O)O)cn2-c2ccc(F)cc2)cc1`, 262 to 266 °C.
Next, `CC(=O)OCC(=O)C12OCOC1CC1C3CCC4=CC(=O)C=CC4(C)C3(F)C(O)CC12C` (stereo not drawn): 283 to 285 °C; `O=C(COCc1cc(Br)cc2[nH]c(=O)c(=O)[nH]c12)Nc1ccccc1`: above 250 °C.
On to `O=C(Cc1ccccc1Nc1c(Cl)cccc1Cl)OCI`, for which the melting point worked out at 66 °C.
Next, `CCOC(=O)C1=C(CCC(OC(=O)c2ccc([N+](=O)[O-])cc2)c2ccccc2)NC(C)=C(C(=O)OC)C1c1cccc([N+](=O)[O-])c1` (stereo not drawn): 75 to 90 °C.
Next, `Cc1cc2nc3[nH]c4ccc(Br)cc4c3nc2cc1C`: 319 to 322 °C; `COc1cc(C(=O)c2c(C)c(OCCO)c3ccccn23)ccc1[N+](=O)[O-]`: 142 °C.
The result for `CCC1C(=O)c2cc(OC)c(Cl)c(Cl)c2C1=O` (stereo not drawn) reads 153 to 154 °C; that for `CCOC(=O)C(OC)C(=O)Nc1cccc(Cl)c1` (stereo not drawn), 43.5 to 46.5 °C.
Take `Cc1ccnc2c1C(=O)CC(c1cc(Cl)ccc1Cl)C2` (stereo not drawn): the melting point fell in the range of 116 to 117 °C.
Next, `CCC(O)(c1ccsc1)c1oc(C)nc1C` (stereo not drawn): 81 to 83 °C.
Next, `NC(=O)CNC(=O)CN1CC(O)CC1=O` (stereo not drawn): 158 to 160 °C; `O=C(NS(=O)(=O)c1cccc([N+](=O)[O-])c1)c1ccccc1Cl`: 135 °C.
Next, `O=S(=O)(NCC1CCC(NCC2CCc3ccccc3C2)CC1)c1ccc2ccccc2c1` (stereo not drawn): 114 to 115 °C; `Cc1cccc2c1nc(COc1ccc(Cl)cc1)n2CCC(C)CN(C)C` (racemic): 80 to 82 °C; `CCCc1ccccc1OCCCCCOc1coc(C=O)cc1=O`: 95 to 96 °C.
Regarding `O=C(O)c1cc(Br)cnc1O`, the melting point turned out to be 245 °C.
The result for `CC(C)Cn1c(CNC(=O)OC(C)(C)C)c(-c2cccc(F)c2)c2cc(C(N)=O)ccc2c1=O` reads 147 to 149 °C; that for `O=C1CC(c2cccc(-n3ccnc3)c2)=Nc2ccc(-c3ccccc3F)cc2N1`, 179 to 182 °C.
The result for `CCCCCCn1ccc(N)nc1=O` reads 216 to 217 °C; that for `Cn1c(=O)n(CCO)n(CCO)c1=O`, 126 to 127 °C; that for `CC(C)c1ccc(N(Cc2ccc(N(C)C)cc2)C(=S)C2CCCc3ccccc32)cc1` (stereo not drawn), 123 to 125 °C.
Next, `CCOC(=O)C1=C(COCc2cc(=O)n(C)c(N)n2)NC(C)=C(C(=O)OC)C1c1cccc(Cl)c1Cl` (stereo not drawn): 202 to 205 °C; `O=S(=O)(Cc1cn(C23CC4CC(CC(C4)C2)C3)nn1)c1cc(Cl)ccc1Cl`: 198 to 199 °C.
Consider `O=C1NCCc2c(OCC(O)CN3CCCCC3)cccc21` (stereo not drawn), for which the melting point lay in the range of 162 to 164 °C.
The result for `CC(=O)NC(=O)CSC(=O)c1ccco1` reads 103 to 105 °C; that for `COCC(=O)Nc1c(C(=O)c2cccc(C)c2)[nH]c2ccc([N+](=O)[O-])cc12`, 155 to 157 °C; that for `N#Cc1ncc(SCC(=O)O)nc1C#N`, 141 to 143 °C.
The result for `COC(=O)CC(C)C(=O)c1ccc2c(c1)OCC(=O)N2` (stereo not drawn) reads 95 to 98 °C; that for `CC(=O)Nc1nc(CCc2ccc(CC#N)cc2)cs1`, 160 to 161 °C.
Next, `O=C1CCC(N2C(=O)c3cccc(OCc4cc5ccccc5o4)c3C2=O)C(=O)N1` (stereo not drawn): 234 to 236 °C.
With `CC(=O)N1CC(CCN2CCC(c3ccccc3)CC2)c2cc3c(cc21)OCO3` (stereo not drawn), the melting point was 101 to 103 °C.
`COc1ccc(Cn2nnc(-c3ccc(OC)c(C(=O)NCc4ccc(F)cc4)c3)n2)cc1` yielded a melting point of 156 to 158 °C.
Consider `Cc1ccc(S(=O)(=O)Oc2ccc(Cl)c3c2C(=O)c2cnccc2C3=O)cc1`, for which the melting point lay in the range of 193 to 195 °C.
The result for `O=C(NCc1ccc(Cl)cc1)c1nn(-c2ccccc2)c2sc(CN3CCOCC3)cc2c1=O` reads 182 to 184 °C; that for `O=C(c1ccc(-c2cc(Cl)ccc2OCc2ccccc2)cc1C(F)(F)F)N1CCCC1`, 143 to 144 °C; that for `CN1CC(=O)N(C)C1=NC(=O)Nc1cccc(Cl)c1`, 134 to 137 °C.
The result for `COc1cc2ncnc(N3CCCc4cc(C)ccc43)c2cc1OC` reads 147 to 148 °C.
The result for `N#Cc1ccc(N(Cc2ccc(OCc3ccccc3)cc2)n2cnnc2)cc1` reads 206 to 211 °C; that for `CCCCCC(CCCCC)n1c(=O)sc2c(=O)[nH]c(N)nc21`, above 195 °C; that for `CCCS(=O)c1csc(C(=O)OC)c1S(N)(=O)=O` (stereo not drawn), 131 to 144 °C.
Compound `CC(=O)NNc1c(C)cnc2c(NC(=O)c3c(Cl)cccc3Cl)cccc12` displayed a melting point of 249 to 254 °C.
Next, `CC(=O)OCC1OC(OC2OC(CO)C(O)C(O)C2O)C(OC(C)=O)C(OC(C)=O)C1OC(C)=O` (stereo not drawn): 120 °C; `NC(c1ccccc1)c1nc2ccccc2s1` (stereo not drawn): 68 to 70 °C; `CC12CCC3C(CC=C4CC(O)CCC43CSSCCO)C1CCC2=O` (stereo not drawn): 129 to 130 °C.
Consider `OC(Cn1ccnc1)C12CC3CC(CC(C3)C1)C2` (stereo not drawn), for which the melting point was 226 to 228 °C.
The result for `CN1C(=O)C(Br)=C(c2c[nH]c3c(OC(c4ccccc4)c4ccccc4)cccc23)C1=O` reads 205 °C.
The compound `Cc1nc(C(=O)NN)c2n1-c1ccc(Cl)cc1C(c1ccccc1)NC2` (stereo not drawn) returned a melting point of 225 to 230 °C.
The result for `Cc1c(C)c2c(c(C)c1NC=O)CC(C)(CO)O2` (stereo not drawn) reads 149 to 150 °C.
